The values below come from publication PMC9663428, “The protein conformational basis of isoflavone biosynthesis” (Communications Biology, 2022).

This experiment deals with T1, 2-HID (Pueraria montana, UniProt E9M5G1).
T1 construct: His-tagged (Ni-NTA) from pDEST17, expressed in E. coli BL21(DE3); first eight residues not observed; one molecule per asymmetric unit
T1 sequence (E9M5G1 1-325): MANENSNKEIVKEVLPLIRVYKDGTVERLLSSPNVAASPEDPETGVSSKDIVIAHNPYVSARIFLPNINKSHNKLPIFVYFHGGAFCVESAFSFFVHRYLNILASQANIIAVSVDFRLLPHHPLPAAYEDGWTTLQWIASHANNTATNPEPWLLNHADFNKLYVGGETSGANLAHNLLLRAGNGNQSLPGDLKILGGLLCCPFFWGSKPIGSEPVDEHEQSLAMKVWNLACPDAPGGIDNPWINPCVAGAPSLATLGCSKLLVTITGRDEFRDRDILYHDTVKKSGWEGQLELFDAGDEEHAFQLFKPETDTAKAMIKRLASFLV
Nature of the experiment: X-ray crystal structure, co-crystallization, […] Å. It counts as binding. The note with it: carboxylesterase product; active site, hydrogen bond to Thr168; complex is 8EA1 or 8EA2, paper does not say which.

In the case of `O=[N+]([O-])c1ccc(O)cc1` [p-nitrophenol], the “X-ray crystal structure, co-crystallization, 2.3 Å” value was “only a structure of 2-HID complexed with p-nitrophenol, a product of the carboxylesterase reaction”.
